Reference: patent publication US8097624B2, “Cycloalkyl derivatives of 3-hydroxy-4-pyridinones” (Apotex Inc., priority 2006, dated 2012)

Experiments:
[1] = Metal complexation constants, Al system (potentiometric titration; pM by Hyss); type: binding; details: pH 7.4, ligand 10 μM, metal 1 μM
Protocol: In a typical experiment, the sample solution was prepared by the following method: Apo6619 (31.91 mg) was weighed into a 25-ml beaker followed by the addition of 0.1 M NaCl (18.9 ml). The mixture was sonicated for 10 minutes to give a clear colorless solution. Aluminum stock solution (atomic absorption standard, Aldrich, 971 μl, 3.59×10^−5 mole) was pipetted into the solution followed by the addition of 1.000 N NaOH (229 μl) to give pH 8.56. The molar ratio between the total Aluminum and the total Apo6619 was 1:4. For M^2+ metals, a molar ratio of 1:3 was used. Nitrogen was allowed to bubble through the solution. The mixture was allowed to equilibrate at 22° C. for 2 hours. […]
The solution was titrated against 1.000 N NaOH at 22° C. to reach pH 11.0. For each addition of base, the solution was allowed to equilibrate until a constant pH reading was reached. The volume of the base added and the pH reading were then recorded for each measurement. […]
The data set of pH vs. base volume was analyzed using Hyperquad 2000. […]
(§1) To calculate pM^n+ for a MLn system, βn and pKa values are needed (βn are the formation constants for M^n++n L^− ? MLn; pKa are the equilibrium constants for L^−+n H^+ ? LHn^(n−1)+). The pM^n+ can be calculated by using Hyss software (Hyperquad Stimulation and Speciation software: HYSS2© 2000 Protonic Sofware).

[2] = Metal complexation constants, Cu system; type: binding
Protocol: (§2) In a typical experiment, the sample solution was prepared by the following method: Apo6619 (31.91 mg) was weighed into a 25-ml beaker followed by the addition of 0.1 M NaCl (18.9 ml). The mixture was sonicated for 10 minutes to give a clear colorless solution. Aluminum stock solution (atomic absorption standard, Aldrich, 971 μl, 3.59×10^−5 mole) was pipetted into the solution followed by the addition of 1.000 N NaOH (229 μl) to give pH 8.56. The molar ratio between the total Aluminum and the total Apo6619 was 1:4. For M^2+ metals, a molar ratio of 1:3 was used. Nitrogen was allowed to bubble through the solution. The mixture was allowed to equilibrate at 22° C. for 2 hours. 1.000 N Hydrochloric acid (264 μl) was then added to the solution to give pH 2.20. The solution was allowed to equilibrate at 22° C. for 1 hour.
(§3) The solution was titrated against 1.000 N NaOH at 22° C. to reach pH 11.0. For each addition of base, the solution was allowed to equilibrate until a constant pH reading was reached. The volume of the base added and the pH reading were then recorded for each measurement. 93 measurements were used in the experiment.
(§4) The data set of pH vs. base volume was analyzed using Hyperquad 2000. Given the model: L^−+H^+ ? LH (pKa1), LH+H^+ ? LH2^+ (pKa2), Al^3++L^− ? ^AlL^2+ (K1), AlL^2++L^− ? AlL2^+ (K2), AlL2^++L^− ? AlL3 (K3), and β3=K1K2K3, the stepwise formation constants for Al-Apo6619 system were optimized as log K1=12.6(2); log K2=9.2(1); log K3=8.4(1); log β3=30.2(2).
(§5) pM^n+ is defined as −log [M(H2O)m]^n+ at physiological conditions, i.e.: pH 7.4, a ligand concentration of 10 μM, and a metal concentration of 1 μM.
as §1

[3] = Metal complexation constants, Zn system; type: binding
Protocol: as §2, §3, §4, §5, §1

[4] = Metal complexation constants, Mn system; type: binding
Protocol: as §2, §3, §4, §5, §1

[5] = Metal complexation constants, Mg system; type: binding
Protocol: as §2, §3, §4, §5, §1

[6] = Metal complexation constants, Ca system; type: binding
Protocol: as §2, §3, §4, §5, §1

[7] = Drug Metab. Dispo. 1992; cited from earlier work
[8] = pH 7.4, ligand 10 μM, metal 1 μM

SMILES: CNC(=O)c1c(O)c(=O)cc(C)n1C1CC1 [Apo6619, 1-Cyclopropyl-3-hydroxy-6-methyl-4-oxo-1,4-dihydro-pyridine-2-carboxylic Acid Methylamide]
- PM Al(III) [1]: 13.9
- log K1 Cu(II) ([2]; log scale): 8.9
- log K2 Cu(II) ([2]; log scale): 7.7
- log β2 Cu(II) ([2]; log scale): 16.6
- PM Cu(II) [2, 8]: 10
- log K1 Zn(II) ([3]; log scale): 6.3
- log K2 Zn(II) ([3]; log scale): 5.8
- log β2 Zn(II) ([3]; log scale): 12.1
- PM Zn(II) [3, 8]: 6.4
- log K1 Mn(II) ([4]; log scale): 5.1
- log K2 Mn(II) ([4]; log scale): 4.3
- log β2 Mn(II) ([4]; log scale): 9.4
- PM Mn(II) [4, 8]: 6.0
- log K1 Mg(II) ([5]; log scale): 4.1
- log K2 Mg(II) ([5]; log scale): 3.2
- log β2 Mg(II) ([5]; log scale): 7.3
- PM Mg(II) [5, 8]: 6.0
- log K1 Ca(II) ([6]; log scale): 3
- log K2 Ca(II) ([6]; log scale): 2.1
- log β2 Ca(II) ([6]; log scale): 5.1
- PM Ca(II) [6, 8]: 6.0

SMILES: Cc1c(O)c(=O)ccn1C [deferiprone, 1,2-dimethyl-3-hydroxy-4-pyridinone, reference compound]
- administered dose recovered in the urine as the non-chelating O-glucuronide [7]: more than 85%
